Reference: patent US10946028B2, “Polymer conjugate of sulfoxide derivative-coordinated platinum(II) complex” (priority 2015, dated 2021)
Where “and” joins values, the source holds several entries; their conditions need not be identical. Equal entries are not always repeated. Where two headings read alike, the source gives them in different places.

Legend:
[1] = system: Human gastric cancer 4-1ST; experiment: Antitumor Test 1, human gastric cancer 4-1ST-transplanted mouse; assay type: in vivo, BALB/cA-nu/nu mice
Excerpt: (§1) Human gastric cancer 4-1ST was subcultured and maintained subcutaneously in BALB/cA-nu/nu mice (hereinafter, nude mice). Human gastric cancer 4-1ST was purchased from Central Institute for Experimental Animals.
Human gastric cancer 4-1ST was collected from the subcutaneous sites of nude mice, and the tumors were finely cut into blocks each measuring about 3 mm on one side. The tumor blocks thus obtained were transplanted subcutaneously into the dorsal side of nude mice using a trocar. On the 18th day after transplantation, when the average tumor volume reached about 100 to 200 mm^3, various drugs were intravenously administered through the caudal vein. […] As control drugs, 1-OHP was administered once at a dose of 20 mg/kg, and cisplatin was administered once at a dose of 10 mg/kg. Regarding the amounts of administration of 1-OHP and cisplatin, and the high amounts of administration of the various Example compounds, the maximum tolerable dose (MTD dose) was employed in all cases.
After the administration of the various drugs, the major axes (L) and the minor axes (W) of the tumors were measured over time using calipers, and the tumor volumes (L×W×W×0.5) were calculated. The test was carried out using four animals per group in all cases for a non-administered group and various drug-administered groups. For a period starting from the initiation of administration to the 20th day after administration, the relative tumor volume (T/C (%)) of each of the drug-administered groups was calculated by the following formula, based on the relative tumor volume of the non-administered group as 100, as an index of the antitumor effect. T/C (%)=Relative tumor volume of administered group/relative tumor volume of non-administered group×100 Formula: […]

[2] = system: Human gastric cancer 4-1ST; experiment: Antitumor Test 3, human gastric cancer 4-1ST-transplanted mouse; assay type: in vivo, BALB/cA-nu/nu mice
Excerpt: as §1
Human gastric cancer 4-1ST was collected from subcutaneous sites of nude mice, and the tumors were finely cut into blocks each measuring about 3 mm on one side. The tumor blocks thus obtained were transplanted subcutaneously into the dorsal side of nude mice using a trocar. On the 17th day after transplantation, when the average tumor volume reached about 100 to 200 mm^3, various drugs were intravenously administered through the caudal vein. […] As a control drug, 1-OHP or cisplatin (CDDP) was administered once at a dose of 18 mg/kg or 10 mg/kg. Regarding the high amounts of administration of the administered compounds, the maximum tolerable dose (MTD dose) was employed in all cases. After the administration of the various drugs, the major axes (L) and the minor axes (W) of the tumors were measured over time using calipers, and the tumor volumes (L×W×W×0.5) were calculated. The test was carried out using four animals per group in all cases for a non-administered group and various drug-administered groups. For a period starting from the initiation of administration to the 21st day after administration, the T/C (%) values of the various drug-administered groups are presented in Table 5.

[3] = Maximum tolerable dose (MTD dose) in the antitumor tests; assay type: in vivo, BALB/cA-nu/nu mice; settings: administered once intravenously, nude mice
Protocol: Human gastric cancer 4-1ST was collected from the subcutaneous sites of nude mice, and the tumors were finely cut into blocks each measuring about 3 mm on one side. The tumor blocks thus obtained were transplanted subcutaneously into the dorsal side of nude mice using a trocar. On the 18th day after transplantation, when the average tumor volume reached about 100 to 200 mm^3, various drugs were intravenously administered through the caudal vein. […] As control drugs, 1-OHP was administered once at a dose of 20 mg/kg, and cisplatin was administered once at a dose of 10 mg/kg. […]
(§2) Human gastric cancer 4-1ST was collected from subcutaneous sites of nude mice, and the tumors were finely cut into blocks each measuring about 3 mm on one side. […] After the administration of the various drugs, the major axes (L) and the minor axes (W) of the tumors were measured over time using calipers, and the tumor volumes (L×W×W×0.5) were calculated. […]
as §2

[4] = system: Human gastric cancer 4-1ST; experiment: Antitumor Test 2, human gastric cancer 4-1ST-transplanted mouse; assay type: in vivo, BALB/cA-nu/nu mice; settings: 18 mg/kg once i.v.
Excerpt: as §1
Human gastric cancer 4-1ST was collected from subcutaneous sites of nude mice, and the tumors were finely cut into blocks each measuring about 3 mm on one side. The tumor blocks thus obtained were transplanted subcutaneously into the dorsal side of nude mice using a trocar. On the 18th day after transplantation, when the average tumor volume reached about 100 to 200 mm^3, various drugs were intravenously administered through the caudal vein. […] As a control drug, 1-OHP was administered once at a dose of 18 mg/kg. […] Regarding Example 3 compound, the dose was less than or equal to the MTD dose; however, the dissolution limit of the compound was administered. After the administration of the various drugs, the major axes (L) and the minor axes (W) of the tumors were measured over time using calipers, and the tumor volumes (L×W×W×0.5) were calculated. The test was carried out using four animals per group in all cases for a non-administered group and various drug-administered groups. For a period starting from the initiation of administration to the 21st day after administration, the T/C (%) values of the various drug-administered groups are presented in Table 4.

DAN-G cells = experiment: Proliferation inhibition test, concentration/time dependency; assay type: cell-based, Human
Protocol: Human pancreatic cancer cell line, DAN-G, was purchased from Asta Medica GmbH, and the cells were proliferated and subcultured in a recommended medium described in the pamphlet.
For DAN-G cells that had been cultured and proliferated on a 10 cm dish for cell culture, the culture fluid was removed, and the cells were washed once with 5 ml of PBS (phosphate buffered physiological saline). Subsequently, 1 ml of 0.25% trypsin/0.05% EDTA (ethylenediaminetetraacetic acid)/PBS was added to the cells, and the mixture was left to stand for 5 minutes at 37° C. After it was confirmed that the cells had been detached from the dish, 9 ml of medium was added to the dish to disperse the cells, the dispersion was transferred into a 15 ml tube (Corning, Inc.), and the dispersion was centrifuged for 5 minutes at 1,000 rpm. A supernatant was removed, subsequently 10 ml of fresh medium was added to the tube, and the cells were suspended. A portion of the cells was stained with Trypan Blue, and the viable cell count was measured using a hemocytometer. The suspended cells were diluted with medium to a concentration of 2.6×10^4 cells/ml, and the cells were inoculated onto five sheets of 96 well plate (Plates A, B, C, D, and E) at a volume of 190 μl/well (5×10^3 cells/well).
The cells were then cultured under the conditions of 37° C. and 5% CO2. Three replica wells were provided for each drug concentration.
A test was performed under five different conditions by changing the drug addition time.
For Plates A, B, C, D, and E that had been cultured for 72 hours as described above, the medium was removed, subsequently methanol was added to the plates, and the cells were thereby immobilized on the plates. After methanol was removed, a 0.05% Methylene Blue solution was added to the plate, and the cells were stained for 30 minutes. Methylene Blue was removed, any excess stain solution was washed with water, subsequently 3% hydrochloric acid was added to the plate at a volume of 200 μl/well, and thus Methylene Blue was extracted. The plates were left to stand for 2 hours or longer, and the absorbance at 660 nm was measured using a microplate reader (BENCHMARK PLUS, manufactured by Bio-Rad Laboratories, Inc.). Regarding the measured values, the average value of three replicas of a well for each drug concentration was taken. The proliferation inhibition ratio GI(x) % at a drug concentration x was calculated by the following formula from the absorbance values thus measured. GI(x)%=(1−(Ax−B)/(A0−B))×100

[5] = Body weight change in Antitumor Test 3; assay type: in vivo; settings: 18 mg/kg once i.v., body weight on day of initiation = 1
Excerpt: Human gastric cancer 4-1ST was collected from subcutaneous sites of nude mice, and the tumors were finely cut into blocks each measuring about 3 mm on one side. The tumor blocks thus obtained were transplanted subcutaneously into the dorsal side of nude mice using a trocar. On the 17th day after transplantation, when the average tumor volume reached about 100 to 200 mm^3, various drugs were intravenously administered through the caudal vein. […] Regarding the high amounts of administration of the administered compounds, the maximum tolerable dose (MTD dose) was employed in all cases. After the administration of the various drugs, the major axes (L) and the minor axes (W) of the tumors were measured over time using calipers, and the tumor volumes (L×W×W×0.5) were calculated. The test was carried out using four animals per group in all cases for a non-administered group and various drug-administered groups.
After the administration, the body weights of the mice were measured over time.

SMILES: N.N.[Cl][Pt][Cl] [Cisplatin, cisplatin]
- T/C (%) on days after each administration ([1]; 10 mg/kg once i.v., day 0): 100%
- T/C (%) on days after each administration ([1]; 10 mg/kg once i.v., day 3): 91%
- T/C (%) on days after each administration ([1]; 10 mg/kg once i.v., day 6): 49%
- T/C (%) on days after each administration ([1]; 10 mg/kg once i.v., day 9): 32%
- T/C (%) on days after each administration ([1]; 10 mg/kg once i.v., day 13): 31%
- T/C (%) on days after each administration ([1]; 10 mg/kg once i.v., day 16): 35%
- T/C (%) on days after each administration ([1]; 10 mg/kg once i.v., day 20): 36%
- T/C (%) on days after each administration ([2]; 10 mg/kg once i.v., day 0): 100%
- T/C (%) on days after each administration ([2]; 10 mg/kg once i.v., day 4): 77%
- T/C (%) on days after each administration ([2]; 10 mg/kg once i.v., day 7): 43%
- T/C (%) on days after each administration ([2]; 10 mg/kg once i.v., day 11): 32%
- T/C (%) on days after each administration ([2]; 10 mg/kg once i.v., day 14): 36%
- T/C (%) on days after each administration ([2]; 10 mg/kg once i.v., day 18): 37%
- T/C (%) on days after each administration ([2]; 10 mg/kg once i.v., day 21): 42%
- Maximum tolerable dose (MTD dose) [3]: 10 mg/kg

SMILES: O=C1[O][Pt]2([NH][C@@H]3CCCC[C@H]3[NH]2)[O]C1=O [l-OHP, Oxaliplatin]
- T/C (%) on days after each administration ([4]; day 0): 100%
- T/C (%) on days after each administration ([4]; day 3): 100%
- T/C (%) on days after each administration ([4]; day 7): 65%
- T/C (%) on days after each administration ([4]; day 10): 58%
- T/C (%) on days after each administration ([4]; day 14): 57%
- T/C (%) on days after each administration ([4]; day 17): 61%
- T/C (%) on days after each administration ([4]; day 21): 60%
- IC50 (DAN-G cells; drug exposure 6 hours, 72 hours total culture, concentration in terms of DACH-platin, read-out: IC50, 6 hours): 9000 nM
- IC50 (DAN-G cells; drug exposure 24 hours, 72 hours total culture, concentration in terms of DACH-platin, read-out: IC50, 24 hours): 1800 nM
- IC50 (DAN-G cells; drug exposure 48 hours, 72 hours total culture, concentration in terms of DACH-platin, read-out: IC50, 48 hours): 900 nM
- IC50 (DAN-G cells; drug exposure 72 hours, concentration in terms of DACH-platin, read-out: IC50, 72 hours): 900 nM
- IC50 (6 hours)/IC50 (72 hours) (DAN-G cells; ratio of IC50 values): 10.0
- IC50 (DAN-G cells; read-out: IC50, 2 hour, drug exposure 2 hours, 72 hours total culture, concentration in terms of DACH-platin): 44100 nM
- T/C (%) on days after each administration ([1]; 20 mg/kg once i.v., day 0): 100%
- T/C (%) on days after each administration ([1]; 20 mg/kg once i.v., day 3): 96%
- T/C (%) on days after each administration ([1]; 20 mg/kg once i.v., day 6): 53%
- T/C (%) on days after each administration ([1]; 20 mg/kg once i.v., day 9): 46%
- T/C (%) on days after each administration ([1]; 20 mg/kg once i.v., day 13): 46%
- T/C (%) on days after each administration ([1]; 20 mg/kg once i.v., day 16): 51%
- T/C (%) on days after each administration ([1]; 20 mg/kg once i.v., day 20): 50%
- T/C (%) on days after each administration ([2]; 18 mg/kg once i.v., day 0): 100%
- T/C (%) on days after each administration ([2]; 18 mg/kg once i.v., day 4): 84%
- T/C (%) on days after each administration ([2]; 18 mg/kg once i.v., day 7): 52%
- T/C (%) on days after each administration ([2]; 18 mg/kg once i.v., day 11): 50%
- T/C (%) on days after each administration ([2]; 18 mg/kg once i.v., day 14): 50%
- T/C (%) on days after each administration ([2]; 18 mg/kg once i.v., day 18): 60%
- T/C (%) on days after each administration ([2]; 18 mg/kg once i.v., day 21): 57%
- Maximum tolerable dose (MTD dose) ([3]; listed as 1-OHP): 20 mg/kg and 18 mg/kg
- Relative body weight on days after administration ([5]; day 0): 1.00
- Relative body weight on days after administration ([5]; day 4): 0.78
- Relative body weight on days after administration ([5]; day 7): 0.83
- Relative body weight on days after administration ([5]; day 11): 0.93
- Relative body weight on days after administration ([5]; day 14): 1.03
- Relative body weight on days after administration ([5]; day 18): 1.09
- Relative body weight on days after administration ([5]; day 21): 1.05
